The values that follow come from US20130210034A1, “COMPLEX PHOSPHOPROTEIN ACTIVATION PROFILES” (BECKMAN COULTER, INC., priority 2005, published 2013).

In one assay the test system is pAKT. Description: Cytokine-stimulated phosphorylation in AML cell populations (BM or PB of AML patients). The class given is cell-based, human. As for the experimental part: (§1) To assess the signal transduction response after growth factor simulation, a series comprising two sets of tubes including about 3×10^6 cells/100 μL were incubated at 37° C. for 30 minutes. After this pre-incubation period, tubes with then processes with either a stimulant or inhibitor. […] To examine the effects of protein phosphorylation inhibition, tubes were incubated with an inhibitor cocktail comprising 100 μM/100 μL UO126, 1 μM/100 μL LY294002, and 1 μM/100 μL rapamycin. One unstimulated tube receiving no stimulant or inhibitor was processed to assess basal levels of phospho-protein expression. After stimulation the cells were immediately fixed in 10% formaldehyde solution at 37° C. Pre-labeling with CD13, CD16 and CD64 antibodies was carried out 20 minutes prior to formaldehyde fixation. After fixation, one set of tubes was permeabilized without methanol for pAKT, pERK and pS6 staining and the other for 80% methanol permeabilized for pSTAT3 and pSTAT5 staining. After permeablization, the cells were washed in PBS with 2% BSA and blocked by re-suspended in 75 μL of PBS comprising 25% heat inactivated normal mouse serum, 25% normal rabbit serum. To stain cells with fluorescent conjugated monoclonal antibodies, samples were incubated on ice for 45 minutes in 100 μL of an antibody staining solution including either: 1) CD15-Pacific Orange, CD34-Phycoerythrin-Texas Red, CD117-Phycoerythrin-Cyanin 5.5, CD45-Allophycocyanin-Alexa Fluor 750 (or CD45-Pacific Orange, in which case CD15-Pacific Orange was omitted), pS6-Pacific Blue, pERK-Alexa Fluor 488 and pAKT-Alexa Fluor 647 or 2) CD15-Pacific Orange, CD34-Phycoerythrin-Texas Red, CD117-Phycoerythrin-Cyanin 5.5, CD45-Allophycocyanin-Alexa Fluor 750 or CD45-Pacific Blue, pSTAT3-Alexa Fluor 488 and pSTAT5-Phycoerythrin. The stained cells were washed twice with ice cold PBS containing 2% BSA and centrifuged at 800 g for 6 minutes at 4° C. The supernatant was discarded and cells re-suspended in 250 μL of chilled wash buffer for data acquisition. Stained cells were examined using either GALIOS flow cytometer (Beckman Coulter) or CYAN ADP (Beckman Coulter) equipped with 488 nm, 405 nm and 635 nm lasers to detect the degree of fluorescence. Data were analyzed using FCS Express (De Novo Software, CA) analysis software.
(§2) Specific phosphoprotein expression of pERK, pS6, pAKT, pSTAT5, and pSTAT3 was examined in seven discrete phenotypically defined populations based on 7-color immunophenotyping (FIG. 1). The percent of responding (phosphorprotein positive) cells for each of these populations was determined from individual single parameter histograms based on a fixed integration region set on the inhibitor treated control at about 3% positives.
(§3) Using normal BM signaling profiles of Example 1 as comparison, analysis of 14 AML samples was carried out to identify differences in signaling responses. White blood cells from BM or peripheral blood (PB) samples were obtained from 14 diagnosed AML patients undergoing routine clinical flow cytometry analysis using IRB approved protocols. The AML patients included newly diagnosed AML, AMLs arising in a background of MDS, therapy related AMLs and previously diagnosed AML post therapy. The median age of the patients at diagnosis was 51 years (range: 29-75 years) and represented 5 female and 9 male patients. The median white blood cell was 6.4 million/mL (range: 0.9-106 M/mL) and the BM morphologic blast count was an average of 46% (range: 0%-90%).
(§4) Experiments performed to assess the signal transduction response after growth factor simulation were performed as described for Example 1.

For the next assay, the system named is pERK. The description is as above. The class given is cell-based, human. As for the experimental part: as §1, §2, §3, §4

With Stem Cell Factor [SCF], the “pAKT, AML Sample” value was “typical upregulation of pAKT” with pAKT (patient AML5 (Example 3)) and 3.2 in the assay with pAKT (patient AML11 (Example 3)). Moreover, the “pAKT activation kinetics compared to normal” value with pAKT (patient AML7 (Example 3), abnormal blasts) is “significant delayed activation, and prolonged expression”. In addition, the “pERK, AML Sample” value stood at 4.8 in the assay with pERK (patient AML2 (Example 3)); 3.0 in the assay on pERK (patient AML6 (Example 3)); 3.3 with pERK (patient AML11 (Example 3)); 3.3 in the assay with pERK (patient AML12 (Example 3)); 4.8 with pERK (patient AML13 (Example 3)). In addition, in the assay with pERK (patient AML5 (Example 3), normal value of this line is an S/N ratio), the “pERK, AML Sample (first AML5 line)” value is recorded as 3.4.

B1: FMS-Like Tyrosine Kinase 3 (FLT-3) ligand (protein, UniProt P49771 27-235, looked up)
Fms-related tyrosine kinase 3 …: TQDCSFQHSPISSDFAVKIRELSDYLLQDYPVTVASNLQDEELCGGLWRLVLAQRWMERLKTVAGSKMQGLLERVNTEIHFVTKCAFQPPPSCLRFVQTNISRLLQETSEQLVALKPWITRQNFSRCLELQCQPDSSTLPPPWSPRPLEATAPTAPQPPLLLLLLLPVGLLLLAAAWCLHWQRTRRRTPRPGEQVPPVPSPQDLLLVEH
On to B1, for which, in the assay with pAKT (patient AML5 (Example 3)), the “pAKT, AML Sample” value is listed as 8.1. Also, the “pERK, AML Sample” value is given as 10.3 in the assay on pERK (patient AML1 (Example 3)), 8.1 with pERK (patient AML5 (Example 3)) and 12.0 in the assay on pERK (patient AML9 (Example 3)).
